Blank lines part the entries; values can stand above or below the compound they belong to.
Assays:
Homo sapiens [1] = species on record: Homo sapiens; assay: Selectivity index, ratio of Ki for human A1 receptor to Ki for human A3 receptor assessed as fold change
Homo sapiens [2] = species on record: Homo sapiens; assay: Selectivity index, ratio of Ki for human A2A receptor to Ki for human A3 receptor assessed as fold change
[3] = Aqueous solubility of compound; format: physicochemical
Adenosine receptor A3 = target: T1, Adenosine receptor A3 (Homo sapiens, UniProt P0DMS8); assay: Binding affinity to human A3 adenosine receptor assessed as inhibition constant
T1 sequence (P0DMS8 whole entry): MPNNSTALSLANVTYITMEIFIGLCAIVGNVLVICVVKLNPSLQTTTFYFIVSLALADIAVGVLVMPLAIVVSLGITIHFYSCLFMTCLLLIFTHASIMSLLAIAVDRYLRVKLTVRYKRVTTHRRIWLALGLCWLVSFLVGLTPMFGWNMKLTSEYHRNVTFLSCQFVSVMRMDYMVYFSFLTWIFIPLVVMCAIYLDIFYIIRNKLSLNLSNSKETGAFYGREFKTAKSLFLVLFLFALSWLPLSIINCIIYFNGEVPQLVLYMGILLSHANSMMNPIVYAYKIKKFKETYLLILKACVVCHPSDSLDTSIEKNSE

Homo sapiens [4] = species on record: Homo sapiens; assay: Selectivity index, ratio of Ki for human A2 receptor to Ki for A1 receptor assessed as fold change
[5] = target: GABA-A receptor; anion channel; assay: Inhibition of GABAA receptors (unknown origin); format: protein-complex assay, Homo sapiens
[6] = Inhibition of bile export protein (unknown origin); set-up: species or system Homo sapiens
Guanine deaminase = target: T2, Guanine deaminase (Homo sapiens, UniProt Q9Y2T3); assay: Inhibition of guanine deaminase (unknown origin)
T2 sequence (Q9Y2T3 whole entry): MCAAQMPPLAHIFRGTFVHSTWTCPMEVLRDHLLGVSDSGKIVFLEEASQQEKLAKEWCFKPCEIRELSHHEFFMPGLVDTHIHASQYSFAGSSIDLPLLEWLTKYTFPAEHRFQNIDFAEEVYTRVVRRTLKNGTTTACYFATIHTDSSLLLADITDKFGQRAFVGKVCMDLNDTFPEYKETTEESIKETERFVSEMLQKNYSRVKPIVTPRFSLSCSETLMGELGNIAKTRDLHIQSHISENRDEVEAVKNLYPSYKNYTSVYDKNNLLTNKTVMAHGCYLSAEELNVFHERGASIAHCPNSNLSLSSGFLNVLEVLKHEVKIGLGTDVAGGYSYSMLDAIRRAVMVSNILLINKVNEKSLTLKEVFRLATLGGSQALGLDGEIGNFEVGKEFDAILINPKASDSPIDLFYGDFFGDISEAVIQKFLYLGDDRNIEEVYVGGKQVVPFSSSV

[7] = Inhibition of human glycogen phosphorylase in presence of 0.2 mM of AMP
[8] = Inhibition of human glycogen phosphorylase
[9] = target: Nuclear receptor subfamily 2 group E member 1 (Homo sapiens, UniProt Q9Y466); assay: Inhibition of tlx (unknown origin)
Sequence of Nuclear receptor subfamily 2 group E member 1 (Q9Y466 whole entry): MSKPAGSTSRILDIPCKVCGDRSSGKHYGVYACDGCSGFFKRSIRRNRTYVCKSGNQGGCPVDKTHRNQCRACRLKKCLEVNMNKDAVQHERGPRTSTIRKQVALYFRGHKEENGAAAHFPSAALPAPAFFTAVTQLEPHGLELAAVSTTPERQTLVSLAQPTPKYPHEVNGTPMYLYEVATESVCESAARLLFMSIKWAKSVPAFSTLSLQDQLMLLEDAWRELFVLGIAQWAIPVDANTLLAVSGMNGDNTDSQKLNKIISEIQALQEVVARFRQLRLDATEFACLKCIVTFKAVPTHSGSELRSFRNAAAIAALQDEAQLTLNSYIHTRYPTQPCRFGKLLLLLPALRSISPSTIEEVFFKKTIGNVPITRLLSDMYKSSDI

[10] = Inhibition of PI3-kinase (unknown origin); set-up: species or system Homo sapiens
[11] = Inhibition of ryanodine receptor (unknown origin); set-up: species or system Homo sapiens
[12] = Inhibition of Glycogen phosphorylase (unknown origin); set-up: species or system Homo sapiens
[13] = target: T3, Palmitoleoyl-protein carboxylesterase NOTUM (Homo sapiens, UniProt Q6P988); assay: Inhibition of notum (unknown origin)
T3 sequence (Q6P988 whole entry): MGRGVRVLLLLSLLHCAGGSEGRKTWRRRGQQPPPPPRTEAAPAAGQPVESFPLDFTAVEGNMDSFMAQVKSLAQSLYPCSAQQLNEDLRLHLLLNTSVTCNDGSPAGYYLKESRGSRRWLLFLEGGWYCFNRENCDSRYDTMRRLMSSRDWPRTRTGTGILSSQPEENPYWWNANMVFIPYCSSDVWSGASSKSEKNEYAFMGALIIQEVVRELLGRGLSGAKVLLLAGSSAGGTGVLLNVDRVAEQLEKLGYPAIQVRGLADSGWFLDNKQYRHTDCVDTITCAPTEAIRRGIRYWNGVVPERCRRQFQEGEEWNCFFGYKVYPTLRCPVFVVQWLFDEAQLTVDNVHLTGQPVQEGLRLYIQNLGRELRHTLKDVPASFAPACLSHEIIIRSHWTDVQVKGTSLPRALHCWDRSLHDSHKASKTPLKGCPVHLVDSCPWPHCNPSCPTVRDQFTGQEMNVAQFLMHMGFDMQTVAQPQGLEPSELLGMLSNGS

[14] = Inhibition of phosphodiesterase (unknown origin); set-up: species or system Homo sapiens
[15] = Inhibition of PDE2 derived from bovine heart by scintillation counter analysis; set-up: species or system Bos taurus
[16] = Inhibition of human PDE5 derived from platelets by scintillation counter analysis
Homo sapiens [17] = species on record: Homo sapiens; assay: Selectivity index, ratio of antagonist activity at A1 receptor to antagonist activity at A2 receptor

SMILES: CC[C@@H]1CN2C(=O)N(C)c3nc(-c4cc(Cl)cc(Cl)c4Cl)[nH]c3C2=N1
Ki (Adenosine receptor A3): 0.000433 µM

SMILES: CCCn1c(=O)c2nc(-c3ccc(OCC(N)=O)cc3O)[nH]c2n(CCC)c1=O
Ratio Ki (Homo sapiens [4]): 190

SMILES: CCCn1c(=O)c2nc(C3CC4CC3C3OC43)[nH]c2n(CCC)c1=O (stereo unspecified)
Ratio Ki (Homo sapiens [4]): 400

SMILES: COc1ccc(Cc2nc(O)c3c(C)nc([C@@H](CCCc4ccccc4)[C@@H](C)O)n3n2)cc1OC
IC50 [15]: 0.0047 µM

SMILES: CCCc1nn(C)c2c(=O)[nH]c(-c3cc(S(=O)(=O)N4CCN(C)CC4)ccc3OCC)nc12
IC50 [16]: 0.01 µM

Results, then the compound that gave them:

Ratio Ki (Homo sapiens [1]): 160
Ratio Ki (Homo sapiens [2]): > 400
SMILES: CCCCn1c(=O)c2c(ncn2[C@@H]2O[C@H](C(=O)NC)[C@@H](O)[C@H]2O)n(CCCC)c1=O

solubility [3]: > 20 µM
SMILES: Cn1c(=O)c2[nH]c(-c3ccc(S(=O)(=O)O)cc3)nc2n(C)c1=O

solubility [3]: < 10 µg/mL
SMILES: CCCn1c(=O)c2c(nc(/C=C/c3ccc(OC)c(OC)c3)n2C)n(CCC)c1=O

pKi [5]: < 4
pIC50 [6]: 4
Ki (Guanine deaminase): 10 µM
IC50 [7]: 360 µM
IC50 [8]: 92 µM
IC50 [9]: 7.94 µM
pIC50 [10]: <= 4.1
pEC50 [11]: < 4
pKi [12]: 4
IC50 [13]: 100 µM
pIC50 [14]: < 4
SMILES: Cn1c(=O)c2c(ncn2C)n(C)c1=O [CAFFEINE]

Ratio (Homo sapiens [17]): 10
SMILES: CCCn1cnc2c1c(=O)n(C)c(=O)n2C
